Laboratory results published in PMC6581955, “Rosmarinic acid suppresses Alzheimer’s disease development by reducing amyloid β aggregation by increasing monoamine secretion” (Scientific Reports, 2019).

What was measured:
Aβ1–42 = target: T1, Aβ1–42 (Homo sapiens, UniProt P05067); experiment: ThT assay (SensoLyte Thioflavin T β-Amyloid (1–42) Aggregation Kit); type: biochemical; conditions: 100 μM monoamine; for relative ThT fluorescence intensity (Aβ aggregation): 45 μM Aβ1–42, 37 °C; for time at which Aβ aggregation was significantly (p < 0.05) inhibited: 45 μM Aβ1–42, Dunnett's test
T1 construct: Dissolved lyophilized Aβ1–42 (PEPTIDE INSTITUTE, INC., Osaka, Japan); purchased PEPTIDE INSTITUTE, INC., Osaka, Japan
Method: Dissolved lyophilized Aβ1–42 (PEPTIDE INSTITUTE, INC., Osaka, Japan) in 2 mM NaOH produced a peptide concentration of 0.5 mg/mL, which was then subjected to sonication by a bath-type sonicator for 1 min prior to re-lyophilizing the resulting solution. The NaOH-treated Aβ1–42 lyophilizate was dissolved in 500 μL distilled water and sonicated for 1 min. We added 500 μL of 20 mM phosphate buffer and centrifuged the resulting solution for 10 min at 16,000 × g. The supernatant was used as the Aβ1–42 solution. Aggregation of Aβ1–42 was measured using the SensoLyte® Thioflavin T β-Amyloid (1–42) Aggregation Kit (ANASPEC Inc., Fremont, CA.) according to the manufacturer’s protocol. To measure the Aβ1–42 fibril formation in the 96-well black microplates, 10 μL of 2 mM ThT and 5 μL of each monoamine solution (2 mM) were added into each well and mixed with 85 μL Aβ1–42 solution. The final concentration of Aβ1–42 was 45 μM and that of each monoamine concentration was 100 μM. The ThT fluorescence signal was monitored with Ex/Em = 440 nm/484 nm using Varioskan LUX (Thermo Fisher Scientific) at 37 °C at intervals of 5 min and 10 min for 0–125 min and 140–175 min, respectively.
All samples were tested in triplicate, and data were shown as relative fluorescence units by subtracting the fluorescence level of the blank from the actual value.

striatum DA and NE = tested on: striatum DA and NE; parameters: method as in PMID 25756794; conditions: fed for 20 days; with elevated Th expression in SN; cited from earlier work
Aβ [1] = tested on: Aβ; parameters: method as in PMID 14994335; conditions: screen of five polyphenols; cited from earlier work
[2] = orally ingested polyphenols; cited from earlier work
[3] = tested on: brain serotonin concentration; parameters: method as in PMID 23009399; conditions: via inhibition of Maoa; cited from earlier work
Aβ [4] = tested on: Aβ; parameters: method as in PMID 15059976, PMID 23913715; conditions: cited from earlier work

T1 sequence (P05067 672-713): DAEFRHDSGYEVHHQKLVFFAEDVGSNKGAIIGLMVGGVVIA

Row | Structure (SMILES) | relative ThT fluorescence intensity (Aβ aggregation) (Aβ1–42) | time at which Aβ aggregation was significantly (p < 0.05) inhibited (Aβ1–42) | further results
1 | O=C(O)Cc1ccc(O)c(O)c1 [DOPAC, 3,4-dihydroxyphenylacetic acid] | lower than that in their absence |  | 
2 | Cn1cnc2c1c(=O)[nH]c(=O)n2C [theobromine] |  |  | DA and NE concentrations in the striatum (striatum DA and NE): significant increases
3 | COc1cc(/C=C/C(=O)CC(=O)/C=C/c2ccc(O)c(OC)c2)ccc1O [Cur, curcumin, reference compound] |  |  | Aβ aggregation in vitro (Aβ [1]): significantly inhibited; intestinal permeability [2]: approximately 0.1%
4 | O=c1c(O)c(-c2ccc(O)c(O)c2)oc2cc(O)cc(O)c12 [quercetin] |  |  | brain serotonin concentration [3]: suppressed a decrease
5 | N[C@@H](Cc1ccc(O)c(O)c1)C(=O)O [L-DOPA, levodopa] | lower than that in their absence | 20 to 160 min | Aβ aggregation (Aβ [4]): inhibit
6 | NC[C@H](O)c1ccc(O)c(O)c1 [NE, norepinephrine] | lower than that in their absence | 20 to 160 min | 
7 | NCCc1ccc(O)c(O)c1 [DA, dopamine] | lower than that in their absence | 15 to 160 min | Aβ aggregation (Aβ [4]): inhibit
8 | COc1cc(/C=C/C(=O)O)ccc1O [FA, ferulic acid] |  |  | Aβ aggregation in vitro (Aβ [1]): significantly inhibited
